# According to US20240400572A1, “COMPOUNDS AND METHODS FOR TREATING CANCERS THAT ARE MGMT DEFICIENT REGARDLESS OF MMR STATUS” (Yale University, priority 2021, published 2024):
# Values joined by “and” are separate entries in the source; they are usually repeats but may differ in a detail not shown here. Identical values can stand only once. “Also recorded” adds a separate entry of the source. Like-named read-outs stand apart in the source and are kept apart here.
# Key:
# [1] = Pharmacokinetic study, plasma; assay type: in vivo; details: male C57BL/6 mice; for plasma Concentration, Individuals / AUC(0-inf) / AUC(0-t) / Cmax / MRT inf / Tmax / half-life: PO 20 mg/kg; for plasma Concentration, Individuals / concentration at 0.083 hr / concentration at 0.167 hr / concentration at 0.333 hr / concentration at 0.5 hr / concentration at 0.75 hr / concentration at 1 hr / concentration at 2 hr / concentration at 4 hr / concentration at 8 hr: 20 mg/kg; for concentration at 0.083 hr / concentration at 0.167 hr / concentration at 0.333 hr / concentration at 0.5 hr / concentration at 0.75 hr / concentration at 1 hr / concentration at 2 hr / concentration at 4 hr / concentration at 8 hr: male, C57BL/6, mouse, po; for concentration at 0.083 hr / concentration at 0.167 hr / concentration at 0.333 hr / concentration at 0.5 hr / concentration at 0.75 hr / concentration at 1 hr / concentration at 2 hr / concentration at 4 hr / concentration at 8 hr / AUC(0-inf) / AUC(0-t) / Cmax / MRT inf / Tmax / half-life: plasma; for concentration at 8 hr: N=3; for AUC(0-inf) / AUC(0-t) / Cmax / MRT inf / Tmax / half-life: mouse
# Procedure: Compound KL50 dosing solution: 3.39% DMSO+96.61% (10% HP-β-CD in saline) at 2 mg/mL; • 1) Weigh 17.39 mg of compound KL50 into a clean tube. • 2) Add 0.295 mL DMSO into the tube containing the compound. • 3) Vortex the tube for 3 min and sonicate it for 4 min. • 4) Add 8.400 mL 10% HP-β-CD in saline into the tube and vortex the tube for 3 min. Compound I-1 dosing solution: 3.39% DMSO+96.61% (10% HP-β-CD in saline) at 2 mg/mL; • 1) Weigh 16.86 mg Compound I-1 into a clean tube. • 2) Add 0.286 mL DMSO into the tube containing the compound. • 3) Vortex the tube for 3 min and sonicate it for 4 min. • 4) Add 8.144 mL 10% HP-β-CD in saline into the tube and vortex the tube for 3 min.
# The in-vivo pharmacokinetic and brain distribution study was conducted under the following parameters. Twenty seven C57BL/6 male mice were purchased from Shanghai JiHui Laboratory Animal Co. LTD. Each mouse weighted from 16 g to 17 g. The mice were fasted overnight and fed post 4 hr sampling. Compound KL50 and Compound I-I were administered via oral gavage (PO) at a dose of 20 mg/kg (10 mL/kg). After dosing, sampling was completed at 0.083, 0.167, 0.333, 0.5, 0.75, 1, 2, 4 and 8 hr post dose, with three mice sacrificed at each time point.
# Terminal bleeding for plasma and brain was completed at each time point. Approximately 110 μL blood per time point was collected into a K2EDTA tube via the facial vein. The blood sample was put on wet ice and centrifuged to obtain plasma sample (2000 g, 5 min under 4° C.) within 15 minutes. Plasma samples were acidified with 6 μL of formic acid for every 54 μL of plasma. After blood collection, a mid-line incision was made in the animal's scalp and the skin was retracted. The skull overlying the brain was removed. Then, the whole brain was collected, rinsed with cold saline, dried on filtrate paper, and weighed; and then snap frozen by placing the brain into dry-ice. Plasma samples were stored at approximately −70° C. until analysis. Brain tissue was homogenized with 3 volumes (v/w) of PBS (1% FA) and then analyzed with LC-MS/MS. The concentration of study drug was corrected with a dilution factor of four as following: Brain concentration=brain homogenate conc.×4, assuming 1 g wet brain tissue equals to 1 mL
# [2] = system: CHK1 and CHK2 phosphorylation in LN229 MGMT+/−, MMR+/− cells; assay: Western blotting of checkpoint kinase phosphorylation; assay type: cell-based, human; details: 20 μM, 24 or 48 h
# Procedure: Western Blotting. For phospho-protein analysis experiments, cells were lysed in 1× RIPA buffer (Cell Signaling Technology, #9806) supplemented with 1× Protease Inhibitor Cocktail (Roche) and 1× PhosSTOP Phosphatase Inhibitor Cocktail (Sigma). For all other western blot analyses, cells were lysed in lysis buffer (50 mM HEPES, 250 mM NaCl, 5 mM EDTA, 1% NP-40) supplemented with 1× Protease Inhibitor Cocktail (Roche). The de-ubiquitination inhibitor N-ethylmaleimide (NEM, 4 mM) was added in FANCD2 ubiquitination analysis experiments. Proteins were separated using NuPAGE 4-12% Bis-Tris or 3-8% Tris-Acetate Gels (Invitrogen) and transferred to Immobilon-P PVDF membrane (Millipore) for western blotting. Membranes were blocked with 5% milk in TBS-T for 1 h prior to primary antibody addition overnight at 4° C. […] Where shown, bands were quantified using ImageJ software.
# [3] = system: LN229 MGMT+/−, MMR+/− cells; assay: Clonogenic cell survival assay; details: cell status given in the value
# Procedure: Cells were trypsinized, washed, counted, and diluted in a medium containing various concentrations of drug. They were then immediately seeded in six-well plates in triplicate at three-fold dilutions, ranging from 9000 to 37 cells per well. Depending on colony size, these plates were kept in the incubator for 10 to 14 days. After incubation, colonies were washed in phosphate-buffered saline (PBS), stained with crystal violet, counted, and quantified.
# [4] = 0.083 hr, N=3, read-out: plasma Concentration, Mean
# [5] = 0.083 hr, read-out: plasma Concentration, Individuals
# [6] = 0.167 hr, N=3, read-out: plasma Concentration, Mean
# [7] = 0.167 hr, read-out: plasma Concentration, Individuals
# [8] = 0.333 hr, N=3, read-out: plasma Concentration, Mean
# [9] = 0.333 hr, read-out: plasma Concentration, Individuals
# [10] = 0.5 hr, N=3, read-out: plasma Concentration, Mean
# [11] = 0.5 hr, read-out: plasma Concentration, Individuals
# [12] = 0.75 hr, N=3, read-out: plasma Concentration, Mean
# [13] = 0.75 hr, read-out: plasma Concentration, Individuals
# [14] = 1 hr, N=3, read-out: plasma Concentration, Mean
# [15] = 1 hr, read-out: plasma Concentration, Individuals
# [16] = 2 hr, N=3, read-out: plasma Concentration, Mean
# [17] = 4 hr, N=3, read-out: plasma Concentration, Mean
SMILES,"plasma Concentration, Individuals ([1]; 0.083 hr)","plasma Concentration, Individuals ([1]; 0.167 hr)","plasma Concentration, Individuals ([1]; 0.333 hr)","plasma Concentration, Individuals ([1]; 0.5 hr)","plasma Concentration, Individuals ([1]; 0.75 hr)","plasma Concentration, Individuals ([1]; 1 hr)","plasma Concentration, Individuals ([1]; 2 hr)","plasma Concentration, Individuals ([1]; 4 hr)","plasma Concentration, Individuals ([1]; 8 hr)","concentration at 0.083 hr [1, 4] [ng/mL]","concentration at 0.083 hr [1, 5] [ng/mL]","concentration at 0.167 hr [1, 6] [ng/mL]","concentration at 0.167 hr [1, 7] [ng/mL]","concentration at 0.333 hr [1, 8] [ng/mL]","concentration at 0.333 hr [1, 9] [ng/mL]","concentration at 0.5 hr [1, 10] [ng/mL]","concentration at 0.5 hr [1, 11] [ng/mL]","concentration at 0.75 hr [1, 12] [ng/mL]","concentration at 0.75 hr [1, 13] [ng/mL]","concentration at 1 hr [1, 14] [ng/mL]",also measured
"CNC(=O)c1ncn2c(=O)n(CCF)nnc12 [Compound I-1, 3-(2-fluoroethyl)-N-methyl-4-oxo-3H,4H-imidazo[4,3-d][1,2,3,5]tetrazine-8-carboxamide]",20300 ng/mL and 20500 ng/mL,15000 ng/mL and 16600 ng/mL,11300 ng/mL and 13400 ng/mL,7050 ng/mL and 7190 ng/mL,4010 ng/mL and 3430 ng/mL,1520 ng/mL and 2430 ng/mL,359 ng/mL and 714 ng/mL and 185 ng/mL,5.01 ng/mL and 2.42 ng/mL and 3.21 ng/mL,2.65 ng/mL and 5.63 ng/mL and 7.33 ng/mL,20700,21200,14300,11300,11200,8830,6850,6300,3810,3980,2040,"concentration at 1 hr [1, 15]: 2180 ng/mL; concentration at 2 hr [1, 16]: 419 ng/mL; concentration at 4 hr [1, 17]: 3.55 ng/mL; concentration at 8 hr ([1]; 8 hr): 5.2 ng/mL; AUC(0-inf) [1]: 9680 ng·h/mL; AUC(0-t) [1]: 9680 ng·h/mL; Cmax [1]: 20700 ng/mL; MRT inf [1]: 32.2 min; Tmax [1]: 4.98 min; half-life [1]: 37.3 min"
"NC(=O)c1ncn2c(=O)n(CCF)nnc12 [KL-50, 3-(2-fluoroethyl)-4-oxo-3H,4H-imidazo[4,3-d][1,2,3,5]tetrazine-8-carboxamide]",25600 ng/mL and 28000 ng/mL,22900 ng/mL and 18100 ng/mL,14500 ng/mL and 20900 ng/mL,12400 ng/mL and 15300 ng/mL,11000 ng/mL and 10200 ng/mL,7340 ng/mL and 12300 ng/mL,2750 ng/mL and 4570 ng/mL,1590 ng/mL and 796 ng/mL,305 ng/mL and 104 ng/mL and 185 ng/mL,25300,22300,21800,24500,18100,19000,14000,14400,10300,9590,10000,"concentration at 1 hr [1, 15]: 10500 ng/mL; concentration at 2 hr [1, 16]: 3300 ng/mL; concentration at 2 hr ([1]; 2 hr, read-out: plasma Concentration, Individuals): 2580 ng/mL; concentration at 4 hr [1, 17]: 1150 ng/mL; concentration at 4 hr ([1]; 4 hr, read-out: plasma Concentration, Individuals): 1060 ng/mL; concentration at 8 hr ([1]; 8 hr): 198 ng/mL; AUC(0-inf) [1]: 28800 ng·h/mL; AUC(0-t) [1]: 28400 ng·h/mL; Cmax [1]: 25300 ng/mL; MRT inf [1]: 88.2 min; Tmax [1]: 4.98 min; half-life [1]: 89.4 min; CHK1 and CHK2 phosphorylation (in words) [2]: induced CHK1 and CHK2 phosphorylation in MGMT− cells regardless of MMR status; clonogenic survival (in words) [3]: robust antitumor activity in MGMT− cells, independent of MMR status; also recorded: minimal toxicity to MGMT+ cells at doses up to at least 200 μM"
"Cn1nnc2c(C(N)=O)ncn2c1=O [TMZ, temozolomide, reference compound]",–,–,–,–,–,–,–,–,–,–,–,–,–,–,–,–,–,–,–,–,"CHK1 and CHK2 phosphorylation (in words) [2]: only induced phospho-CHK1 and —CHK2 in MGMT−/MMR+ cells; clonogenic survival (in words) [3]: negligible activity in MGMT+LN229 cells, irrespective of MMR status; also recorded: robust tumor cell killing in MGMT−, MMR+ cells that was abolished in isogenic cells lacking MMR"
